Where only a bound is given, the exact number is not on record here.

By IC50 is commonly meant the concentration that inhibits the measured activity by half.

This test has as its system LNCaP cells expressing ARR2PB-FireflyLuc and CMV-RenillaLuc. The experiment in a line: LNCaP ARR2PB-FireflyLuc reporter assay, antagonist mode.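 Further: IC50 bins in nM.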 The format is cell-based. The conditions noted are these: Homo sapiens, LNCaP, 48 h, +0.5 nM DHT, 48 h at 37° C., read-out: LNCap Antagonist Archive: IC50. Here is the method:
LNCaP cells expressing ARR2PB-FireflyLuc and CMV-RenillaLuc were treated with indicated concentrations of test compounds, enzalutamide (negative control), or DHT (positive control)+/−0.5 nM DHT for 48 h at 37° C. Fluorescent signals were read with the ImageXpress Micro Confocal System. Remaining activity (antagonist mode) was calculated as % Remaining Activity=100×[(ReadSample−LCave)/(HCave−LCave)] where HC is cells treated with 0.5 nM DHT only and LC is cells treated with 10 uM enzalutamide+0.5 nM DHT. Activation (agonist mode) was calculated as % Activation=100×[(ReadSample−LCave)/(HCave−LCave)] where HO is cells treated with 1 uM DHT and LC is cells treated with DMSO. Dose response curves and IC50 values were calculated using non-linear regression analysis in XLfit.
The designation “A” indicates an IC50 value of >10 μM, “B” indicates an IC50 value between 1 μM and 10 μM; “C” indicates an IC50 value between 100 nM and 1 μM; and “D” indicates an IC50 value of less than 100 nM.
In general terms: A reporter such as luciferase makes a cellular process visible.
In the case of `CN(C(=O)c1cc2cccc(C(F)(F)F)c2[nH]1)c1ccccc1` [Example 25, N-methyl-N-phenyl-7-(trifluoromethyl)-1H-indole-2-carboxamide], the IC50 was 100 to 1000 nM.
Regarding `Cn1c(C(=O)NC2CC3(CC3)C2)cc2ccnc(Cl)c21` [Example 149, 7-chloro-1-methyl-N-{spiro[2.3]hexan-5-yl}pyrrolo[2,3-c]pyridine-2-carboxamide], the IC50 is 1000 to 10000 nM.
On to `Cn1c(C(=O)NC2(C)CCC2)cc2ccnc(Cl)c21` [Example 147, 7-chloro-1-methyl-N-(1-methylcyclobutyl)pyrrolo[2,3-c]pyridine-2-carboxamide], for which the IC50 is 100 to 1000 nM.
Consider `CN(C(=O)c1cc2cccc(Cl)c2[nH]1)C12CC(C1)C2` [Example 82, N-[bicyclo[1.1.1]pentan-1-yl]-7-chloro-N-methyl-1H-indole-2-carboxamide], for which the IC50 lay within 100 to 1000 nM.
Under `COCCNC(=O)c1cc2ccc(F)cc2n1-c1ccc(C#N)cn1` [Example 52, 1-(5-cyanopyridin-2-yl)-6-fluoro-N-(2-methoxyethyl)-1H-indole-2-carboxamide] stands more than 10000 nM; under `CN(C(=O)c1cc2ccc(F)cc2o1)c1ccc(F)cc1` [Example 39, 6-fluoro-N-(4-fluorophenyl)-N-methyl-1-benzofuran-2-carboxamide], 1000 to 10000 nM.
Under `Cn1ccc(-c2c(C(=O)NC34CC(C3)C4)[nH]c3c(Cl)cccc23)n1` [Example 107, N-[bicyclo[1.1.1]pentan-1-yl]-7-chloro-3-(1-methylpyrazol-3-yl)-1H-indole-2-carboxamide] stands more than 10000 nM.
In the case of `CC(C)N1CCCC(N(C)C(=O)c2cc3cccc(Cl)c3[nH]2)C1` (stereo not shown) [Example 44, 7-chloro-N-(1-isopropylpiperidin-3-yl)-N-methyl-1H-indole-2-carboxamide], the IC50 was more than 10000 nM.
Regarding `CN(C(=O)c1cc2ccc(F)cc2o1)c1ccccc1` [Example 24, 6-fluoro-N-methyl-N-phenyl-1-benzofuran-2-carboxamide], the IC50 fell in the range of 1000 to 10000 nM.
For `CN(C(=O)c1cc2cccc(Cl)c2[nH]1)C12CC(C#N)(C1)C2` [Example 86, 7-chloro-N-[3-cyanobicyclo[1.1.1]pentan-1-yl]-N-methyl-1H-indole-2-carboxamide], the IC50 was in the range of 1000 to 10000 nM.
Turning to `Cc1c(C(=O)NC23CC(F)(C2)C3)n(C)c2c(Cl)nccc12` [Example 129, 7-chloro-N-{3-fluorobicyclo[1.1.1]pentan-1-yl}-1,3-dimethylpyrrolo[2,3-c]pyridine-2-carboxamide], the IC50 was more than 10000 nM.
As to `Cn1c(C(=O)NC23CC(F)(C2)C3)cc2ccnc(C(F)(F)F)c21` [Example 154, N-(3-fluorobicyclo[1.1.1]pentan-1-yl)-1-methyl-7-(trifluoromethyl)-1H-pyrrolo[2,3-c]pyridine-2-carboxamide], the IC50 was 1000 to 10000 nM.
Regarding `CN(C(=O)c1cc2cccc(C#N)c2[nH]1)C12CC(C1)C2` [Example 94, N-[bicyclo[1.1.1]pentan-1-yl]-7-cyano-N-methyl-1H-indole-2-carboxamide], the IC50 lay in the range of 1000 to 10000 nM.
For `O=C(NC12CC(O)(C1)C2)c1cc2ccnc(Cl)c2[nH]1` [Example 116, 7-chloro-N-{3-hydroxybicyclo[1.1.1]pentan-1-yl}-1H-pyrrolo[2,3-c]pyridine-2-carboxamide], the IC50 was more than 10000 nM.
As to `O=C(c1cc2ccc(F)cc2[nH]1)N(c1ccc(F)cc1)C1CCOC1` (stereo not shown) [Example 85, 6-fluoro-N-(4-fluorophenyl)-N-(tetrahydrofuran-3-yl)-1H-indole-2-carboxamide], the concentration for half-maximal inhibition (IC50) is less than 100 nM.
Regarding `N#Cc1ccc(N(CC2CC2)C(=O)c2cc3cccc(Cl)c3[nH]2)cc1` [Example 56, 7-chloro-N-(4-cyanophenyl)-N-(cyclopropylmethyl)-1H-indole-2-carboxamide], the concentration for half-maximal inhibition (IC50) lay in the range of 100 to 1000 nM.
As for `Cn1c(C(=O)NC2CCC2)cc2ccnc(Cl)c21` [Example 143, 7-chloro-N-cyclobutyl-1-methylpyrrolo[2,3-c]pyridine-2-carboxamide], the IC50 was in the range of 100 to 1000 nM.
`CN(C(=O)c1cc2cccc(Cl)c2[nH]1)C1CCCC1` [Example 30, 7-chloro-N-cyclopentyl-N-methyl-1H-indole-2-carboxamide]: the IC50 was in the range of 100 to 1000 nM.
Under `Cc1nccc2cc(C(=O)N(C)C34CC(F)(C3)C4)n(C)c12` [Example 132, N-{3-fluorobicyclo[1.1.1]pentan-1-yl}-N,1,7-trimethylpyrrolo[2,3-c]pyridine-2-carboxamide] stands 1000 to 10000 nM; under `O=C(c1cc2cccc(Cl)c2[nH]1)N(c1ccc(F)cc1)C1CCOC1` (stereo not shown) [Example 58, 7-chloro-N-(4-fluorophenyl)-N-(tetrahydrofuran-3-yl)-1H-indole-2-carboxamide], 100 to 1000 nM.
Turning to `CN(C(=O)c1cc2cccc(Cl)c2[nH]1)C1CCCCC1` [Example 81, 7-chloro-N-cyclohexyl-N-methyl-1H-indole-2-carboxamide], the half-inhibitory concentration (IC50) fell in the range of 1000 to 10000 nM.
Under `CC(C)N(C(=O)c1cc2ccc(F)cc2[nH]1)c1ccccc1` [Example 11, 6-fluoro-N-isopropyl-N-phenyl-1H-indole-2-carboxamide] stands 100 to 1000 nM; under `CC(C)N(Cc1ccccn1)C(=O)c1cc2ccc(F)cc2[nH]1` [Example 7, 6-fluoro-N-isopropyl-N-(pyridin-2-ylmethyl)-1H-indole-2-carboxamide], more than 10000 nM; under `Cn1c(C(=O)NC23CC(F)(C2)C3)c(F)c2ccnc(Cl)c21` [Example 140, 7-chloro-3-fluoro-N-{3-fluorobicyclo[1.1.1]pentan-1-yl}-1-methylpyrrolo[2,3-c]pyridine-2-carboxamide], 100 to 1000 nM.
For the compound `CN(C(=O)c1cc2ccc(F)cc2[nH]1)c1ccncc1` [Example 15, 6-fluoro-N-methyl-N-(pyridin-4-yl)-1H-indole-2-carboxamide], the half-inhibitory concentration (IC50) was more than 10000 nM.
As to `CNc1nccc2cc(C(=O)NC34CC(F)(C3)C4)n(C)c12` [Example 124, N-{3-fluorobicyclo[1.1.1]pentan-1-yl}-1-methyl-7-(methylamino)pyrrolo[2,3-c]pyridine-2-carboxamide], the IC50 is more than 10000 nM.
Consider `CC(C)N(Cc1cnco1)C(=O)c1cc2cccc(Cl)c2[nH]1` [Example 67, 7-chloro-N-isopropyl-N-(1,3-oxazol-5-ylmethyl)-1H-indole-2-carboxamide], for which the IC50 lay within 100 to 1000 nM.
For the compound `CC(C)N1CCC(N(C)C(=O)c2cc3cccc(Cl)c3[nH]2)CC1` [Example 45, 7-chloro-N-(1-isopropylpiperidin-4-yl)-N-methyl-1H-indole-2-carboxamide], the IC50 is more than 10000 nM.
With `Cn1c(C(=O)NC23CC(F)(C2)C3)cc2ccnc(OC3CC3)c21` [Example 119, 7-cyclopropoxy-N-{3-fluorobicyclo[1.1.1]pentan-1-yl}-1-methylpyrrolo[2,3-c]pyridine-2-carboxamide], the half-inhibitory concentration (IC50) was more than 10000 nM.
In the case of `COCCN(C(=O)c1cc2ccc(F)cc2[nH]1)c1ccccc1` [Example 12, 6-fluoro-N-(2-methoxyethyl)-N-phenyl-1H-indole-2-carboxamide], the IC50 fell in the range of 1000 to 10000 nM.
Regarding `O=C(NC12CC(F)(C1)C2)c1cc2ccnc(Cl)c2n1CCN1CCOCC1` [Example 141, 7-chloro-N-{3-fluorobicyclo[1.1.1]pentan-1-yl}-1-[2-(morpholin-4-yl)ethyl]pyrrolo[2,3-c]pyridine-2-carboxamide], the concentration for half-maximal inhibition (IC50) is more than 10000 nM.

The values are drawn from patent US12012398B2, “Bicyclic compounds as androgen receptor modulators” (NIDO BIOSCIENCES, INC., priority 2021, dated 2024).
